In the supplement of paper PMC10307832:

How the values were obtained:
Test in all cases: relative viability (nuclei count vs DMSO), 5 days (fraction); higher = more cells survive
[1] = test system: NCI-H1993
In short: (§1)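 Relative viability is defined as nuclei in treated wells over nuclei in vehicle wells. Duplicate plates were run and medians reported. Lung cancer cell lines in 1536-well plates were dosed by pin tool one day after seeding, with one drug or with a fixed anchor-drug dose plus five library-drug doses (not always all listed) in √10 steps, and nuclei were counted after 5 days.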

[2] = test system: LCLC-103H
In short: as §1

[3] = test system: BEN
In short: as §1

[4] = test system: NCI-H647
In short: as §1

[5] = test system: LOU-NH91
In short: as §1

[6] = test system: NCI-H441
In short: as §1

[7] = test system: NCI-H2347
In short: as §1

[8] = test system: NCI-H3122
In short: as §1

[9] = test system: NCI-H522
In short: as §1

[10] = test system: NCI-H2126
In short: as §1

[11] = test system: HARA
In short: as §1

[12] = test system: HCC-44
In short: as §1

[13] = test system: NCI-H727
In short: as §1

[14] = test system: 201T
In short: as §1

[15] = test system: EMC-BAC-2
In short: as §1

[16] = test system: NCI-H596
In short: as §1

[17] = test system: NCI-H650
In short: as §1

[18] = test system: NCI-H838
In short: as §1

[19] = test system: NCI-H2087
In short: as §1

[20] = test system: NCI-H23
In short: as §1

[21] = test system: NCI-H1395
In short: as §1

CCN(CC)CCCCNc1ncc2cc(-c3cc(OC)cc(OC)c3)c(NC(=O)NC(C)(C)C)nc2n1 + NC(=O)Nc1cc(-c2cccc(F)c2)sc1C(=O)N[C@H]1CCCNC1 [AZD7762] (partner 0.2 µM) gave a relative viability ([1]; first compound 0.01 µM) of 0.896, a relative viability ([1]; first compound 0.03162 µM) of 0.708 and a relative viability ([1]; first compound 0.1 µM) of 0.721. The relative viability ([1]; first compound 0.3162 µM) was 0.97, the relative viability ([1]; first compound 1 µM) was 0.869 and the relative viability ([2]; first compound 0.01 µM) was 0.926. It also gave a relative viability ([2]; first compound 0.03162 µM) of 0.843, a relative viability ([2]; first compound 0.1 µM) of 0.824 and a relative viability ([2]; first compound 0.3162 µM) of 0.83. For the same compound, the relative viability ([2]; first compound 1 µM) was 0.705, the relative viability ([3]; first compound 0.01 µM) was 0.669 and the relative viability ([3]; first compound 0.03162 µM) was 0.61. For the same compound, the relative viability ([3]; first compound 0.1 µM) was 0.703, the relative viability ([3]; first compound 0.3162 µM) was 0.757 and the relative viability ([3]; first compound 1 µM) was 0.676. For the same compound, the relative viability ([4]; first compound 0.01 µM) was 0.272, the relative viability ([4]; first compound 0.03162 µM) was 0.612 and the relative viability ([4]; first compound 0.1 µM) was 0.495. The relative viability ([4]; first compound 0.3162 µM) was 0.476, the relative viability ([4]; first compound 1 µM) was 0.247 and the relative viability ([5]; first compound 0.01 µM) was 0.783. The relative viability ([5]; first compound 0.03162 µM) was 0.768, the relative viability ([5]; first compound 0.1 µM) was 0.828 and the relative viability ([5]; first compound 0.3162 µM) was 0.845. It also gave a relative viability ([5]; first compound 1 µM) of 0.794, a relative viability ([6]; first compound 0.01 µM) of 1.16 and a relative viability ([6]; first compound 0.03162 µM) of 1.16. For the same compound, the relative viability ([6]; first compound 0.1 µM) was 1.1, the relative viability ([6]; first compound 0.3162 µM) was 1.39 and the relative viability ([6]; first compound 1 µM) was 0.921. It also gave a relative viability ([7]; first compound 0.01 µM) of 0.737, a relative viability ([7]; first compound 0.03162 µM) of 0.622 and a relative viability ([7]; first compound 0.1 µM) of 0.842. For the same compound, the relative viability ([7]; first compound 0.3162 µM) was 0.748, the relative viability ([7]; first compound 1 µM) was 0.684 and the relative viability ([8]; first compound 0.01 µM) was 1. The relative viability ([8]; first compound 0.03162 µM) was 0.987, the relative viability ([8]; first compound 0.1 µM) was 1.08 and the relative viability ([8]; first compound 0.3162 µM) was 0.971. For the same compound, the relative viability ([8]; first compound 1 µM) was 1.06, the relative viability ([9]; first compound 0.01 µM) was 0.772 and the relative viability ([9]; first compound 0.03162 µM) was 0.831. It also gave a relative viability ([9]; first compound 0.1 µM) of 0.846, a relative viability ([9]; first compound 0.3162 µM) of 0.781 and a relative viability ([9]; first compound 1 µM) of 0.88. It also gave a relative viability ([10]; first compound 0.01 µM) of 0.976, a relative viability ([10]; first compound 0.03162 µM) of 1 and a relative viability ([10]; first compound 0.1 µM) of 1.15. It also gave a relative viability ([10]; first compound 0.3162 µM) of 1.13, a relative viability ([10]; first compound 1 µM) of 1.01 and a relative viability ([11]; first compound 0.01 µM) of 0.245. It also gave a relative viability ([11]; first compound 0.03162 µM) of 0.376, a relative viability ([11]; first compound 0.1 µM) of 0.327 and a relative viability ([11]; first compound 0.3162 µM) of 0.277. It also gave a relative viability ([11]; first compound 1 µM) of 0.241, a relative viability ([12]; first compound 0.01 µM) of 1 and a relative viability ([12]; first compound 0.03162 µM) of 1.02. The relative viability ([12]; first compound 0.1 µM) was 1.02, the relative viability ([12]; first compound 0.3162 µM) was 1.02 and the relative viability ([12]; first compound 1 µM) was 1.12. For the same compound, the relative viability ([13]; first compound 0.01 µM) was 0.766, the relative viability ([13]; first compound 0.03162 µM) was 0.63 and the relative viability ([13]; first compound 0.1 µM) was 0.677. It also gave a relative viability ([13]; first compound 0.3162 µM) of 0.791, a relative viability ([13]; first compound 1 µM) of 0.667 and a relative viability ([14]; first compound 0.01 µM) of 0.747. The relative viability ([14]; first compound 0.03162 µM) was 0.617, the relative viability ([14]; first compound 0.1 µM) was 0.68 and the relative viability ([14]; first compound 0.3162 µM) was 0.685. For the same compound, the relative viability ([14]; first compound 1 µM) was 0.758, the relative viability ([15]; first compound 0.03162 µM) was 1.14 and the relative viability ([15]; first compound 0.1 µM) was 1.3. For the same compound, the relative viability ([15]; first compound 0.3162 µM) was 1.16, the relative viability ([15]; first compound 1 µM) was 1.07 and the relative viability ([16]; first compound 0.01 µM) was 1.11. It also gave a relative viability ([16]; first compound 0.03162 µM) of 1, a relative viability ([16]; first compound 0.1 µM) of 1.06 and a relative viability ([16]; first compound 0.3162 µM) of 0.979. The relative viability ([16]; first compound 1 µM) was 0.801, the relative viability ([17]; first compound 0.01 µM) was 0.909 and the relative viability ([17]; first compound 0.03162 µM) was 0.944. The relative viability ([17]; first compound 0.1 µM) was 0.97, the relative viability ([17]; first compound 0.3162 µM) was 1.22 and the relative viability ([17]; first compound 1 µM) was 0.994. For the same compound, the relative viability ([18]; first compound 0.01 µM) was 0.734, the relative viability ([18]; first compound 0.03162 µM) was 0.956 and the relative viability ([18]; first compound 0.1 µM) was 0.992. The relative viability ([18]; first compound 0.3162 µM) was 1.1, the relative viability ([18]; first compound 1 µM) was 0.76 and the relative viability ([19]; first compound 0.01 µM) was 1.21. The relative viability ([19]; first compound 0.03162 µM) was 1.31, the relative viability ([19]; first compound 0.1 µM) was 1.34 and the relative viability ([19]; first compound 0.3162 µM) was 1.29. The relative viability ([19]; first compound 1 µM) was 1.18, the relative viability ([20]; first compound 0.01 µM) was 0.229 and the relative viability ([20]; first compound 0.03162 µM) was 0.352. The relative viability ([20]; first compound 0.1 µM) was 0.323, the relative viability ([20]; first compound 0.3162 µM) was 0.207 and the relative viability ([20]; first compound 1 µM) was 0.172. It also gave a relative viability ([21]; first compound 0.01 µM) of 0.402, a relative viability ([21]; first compound 0.03162 µM) of 0.338 and a relative viability ([21]; first compound 0.1 µM) of 0.422. The relative viability ([21]; first compound 0.3162 µM) was 0.392 and the relative viability ([21]; first compound 1 µM) was 0.309.
